Measured values as given in ChEMBL document CHEMBL1201862, “PubChem BioAssay data set” (2004).
The source made the active and inactive calls.

Legend:
Protein skinhead-1 = biological target: T1, Protein skinhead-1 (Caenorhabditis elegans, UniProt P34707); assay type: functional
T1 sequence (P34707 whole entry): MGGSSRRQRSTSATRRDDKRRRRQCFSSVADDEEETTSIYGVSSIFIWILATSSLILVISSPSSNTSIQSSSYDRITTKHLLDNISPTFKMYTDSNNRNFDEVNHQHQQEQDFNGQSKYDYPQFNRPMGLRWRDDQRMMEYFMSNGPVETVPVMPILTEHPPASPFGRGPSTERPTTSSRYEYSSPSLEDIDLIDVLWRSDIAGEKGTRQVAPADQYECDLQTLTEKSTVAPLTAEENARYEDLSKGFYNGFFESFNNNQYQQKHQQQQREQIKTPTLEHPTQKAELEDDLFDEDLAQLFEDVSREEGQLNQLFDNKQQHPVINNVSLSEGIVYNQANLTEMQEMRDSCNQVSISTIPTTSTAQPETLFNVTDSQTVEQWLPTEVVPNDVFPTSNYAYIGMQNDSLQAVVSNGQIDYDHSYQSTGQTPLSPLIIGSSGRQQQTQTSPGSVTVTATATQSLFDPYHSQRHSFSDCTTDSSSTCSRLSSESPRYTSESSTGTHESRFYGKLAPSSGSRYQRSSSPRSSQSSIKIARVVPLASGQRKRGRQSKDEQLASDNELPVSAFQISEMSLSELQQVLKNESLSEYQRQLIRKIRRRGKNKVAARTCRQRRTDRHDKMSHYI

Large T antigen = Large T antigen (Simian virus 40, UniProt P03070); assay type: functional, Betapolyomavirus macacae;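 also: Confirmatory-stage PubChem screen for compounds that inhibit SV40 T antigen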
[1] = Luminescence Cell-Based Dose Retest to Confirm Inhibitors of Cancer Stem Cells. [Related pubchem assays (depositor defined):AID2717, AID2721]; assay type: functional; conditions: Homo sapiens
[2] = microbe, parasite or virus in culture; assay type: functional; conditions: Mycobacterium tuberculosis
[3] = biological target: Induced myeloid leukemia cell differentiation protein Mcl-1 (Homo sapiens, UniProt Q07820); assay type: functional
[4] = Luminescence Cell-Based Dose Confirmation HTS to Identify Activators of 5'UTR Stem-Loop Driven Alpha-Synuclein mRNA Translation in H4 Neuroglioblastoma Cells. [Related pubchem assays: 1829 (Project Summary), 1814 (Primary HTS)]; assay type: functional
[5] = Luminescence Cell-Based Dose Response HTS to Identify Activators of Luciferase Translation or Activity in H4 […] Cells. [Related pubchem assays: 1829 (Project Summary), 1814 (Primary HTS)]; assay type: functional
H4 = experiment: Luminescence Cell-Based Dose Response HTS to Identify Activators of 5'UTR Stem-Loop Driven Prion Protein mRNA Translation in H4 Neuroglioblastoma Cells. [Related pubchem assays: 1829 (Project Summary), 1814 (Primary HTS)]; assay type: functional; conditions: Homo sapiens
[6] = Trypanosoma cruzi growth suppression in host cells – NIH3T3 host cells, beta-gal luminescence, confirmation (AID 2044); assay type: functional, cell-based;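 also: intracellular parasites grown in NIH/3T3 mouse fibroblasts as host cells; luminescent beta-galactosidase reporter signal from transgenic T. cruzi replicating inside host cells; inhibitors lower the luminescence signal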
[7] = NIH3T3 cell viability loss – ATP luminescence, mouse fibroblasts, counter-screen, dose response (AID 2010); assay type: functional, cell-based;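 also: cells exposed to compound for about 90 hours before reading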
[8] = biological target: T2, Heat shock factor protein 1 (Mus musculus, UniProt P38532); experiment: enhancement of HSF1-driven luciferase signal – cell-based, NIH3T3, luminescence, dose retest, confirmation (AID 435004); assay type: functional;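 also: stress induced by proteasome inhibitor MG132 added 30 min after compound; luciferase reporter driven by HSF1 response element in NIH3T3 cells; actives raise luminescence as potentiators of the MG132 stress response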
T2 sequence (P38532 whole entry): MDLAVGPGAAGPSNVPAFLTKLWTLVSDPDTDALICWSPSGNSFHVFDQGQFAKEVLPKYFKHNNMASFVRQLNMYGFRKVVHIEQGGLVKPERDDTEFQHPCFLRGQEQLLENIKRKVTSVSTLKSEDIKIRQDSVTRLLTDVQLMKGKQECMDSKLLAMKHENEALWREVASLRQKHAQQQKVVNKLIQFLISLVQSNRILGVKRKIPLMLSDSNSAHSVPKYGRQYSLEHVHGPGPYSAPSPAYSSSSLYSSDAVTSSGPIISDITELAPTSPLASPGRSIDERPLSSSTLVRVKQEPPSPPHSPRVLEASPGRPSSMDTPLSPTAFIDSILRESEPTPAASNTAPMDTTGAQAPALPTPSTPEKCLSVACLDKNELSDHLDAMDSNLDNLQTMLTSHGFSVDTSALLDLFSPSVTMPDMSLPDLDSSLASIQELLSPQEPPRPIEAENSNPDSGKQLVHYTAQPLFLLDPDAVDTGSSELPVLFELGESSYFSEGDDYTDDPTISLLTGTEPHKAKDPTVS

[9] = biological target: T3, Replicative DNA helicase DnaB (Mycobacterium tuberculosis, UniProt P9WMR3); experiment: DnaB intein splicing inhibitors, dose response, biochemical, cell-free fluorescence (AID 449749); assay type: functional
T3 sequence (P9WMR3 whole entry): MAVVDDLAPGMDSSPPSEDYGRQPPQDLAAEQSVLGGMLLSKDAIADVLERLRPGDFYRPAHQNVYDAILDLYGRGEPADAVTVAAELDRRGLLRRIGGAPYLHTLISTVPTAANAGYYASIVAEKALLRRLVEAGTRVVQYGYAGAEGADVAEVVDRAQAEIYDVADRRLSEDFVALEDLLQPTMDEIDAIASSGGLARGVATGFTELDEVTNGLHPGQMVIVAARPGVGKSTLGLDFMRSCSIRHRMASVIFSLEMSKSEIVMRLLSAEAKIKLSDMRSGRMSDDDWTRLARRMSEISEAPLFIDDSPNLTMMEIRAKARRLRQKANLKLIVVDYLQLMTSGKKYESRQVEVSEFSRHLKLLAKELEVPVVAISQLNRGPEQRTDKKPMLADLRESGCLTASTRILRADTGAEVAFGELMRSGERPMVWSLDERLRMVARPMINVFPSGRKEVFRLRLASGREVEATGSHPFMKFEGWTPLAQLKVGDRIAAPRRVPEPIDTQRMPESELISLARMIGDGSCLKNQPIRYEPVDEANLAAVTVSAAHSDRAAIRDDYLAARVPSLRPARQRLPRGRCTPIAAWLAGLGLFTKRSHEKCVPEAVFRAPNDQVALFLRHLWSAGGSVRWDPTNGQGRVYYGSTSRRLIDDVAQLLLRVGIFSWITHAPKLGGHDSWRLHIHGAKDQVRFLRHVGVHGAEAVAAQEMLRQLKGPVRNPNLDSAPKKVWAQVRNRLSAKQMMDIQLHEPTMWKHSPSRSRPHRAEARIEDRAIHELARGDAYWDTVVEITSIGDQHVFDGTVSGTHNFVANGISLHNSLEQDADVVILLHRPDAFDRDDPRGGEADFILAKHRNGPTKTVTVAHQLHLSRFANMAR

Protein RecA = biological target: T4, Protein RecA (Mycobacterium tuberculosis, UniProt P9WHJ3); experiment: Fluorescence Cell-Free Homogeneous Dose Retest to Identify Inhibitors of RecA-Intein Splicing Activity. [Related pubchem assays (depositor defined):AID2097, AID2223, AID489010, AID492950]; assay type: functional
T4 sequence (P9WHJ3 whole entry): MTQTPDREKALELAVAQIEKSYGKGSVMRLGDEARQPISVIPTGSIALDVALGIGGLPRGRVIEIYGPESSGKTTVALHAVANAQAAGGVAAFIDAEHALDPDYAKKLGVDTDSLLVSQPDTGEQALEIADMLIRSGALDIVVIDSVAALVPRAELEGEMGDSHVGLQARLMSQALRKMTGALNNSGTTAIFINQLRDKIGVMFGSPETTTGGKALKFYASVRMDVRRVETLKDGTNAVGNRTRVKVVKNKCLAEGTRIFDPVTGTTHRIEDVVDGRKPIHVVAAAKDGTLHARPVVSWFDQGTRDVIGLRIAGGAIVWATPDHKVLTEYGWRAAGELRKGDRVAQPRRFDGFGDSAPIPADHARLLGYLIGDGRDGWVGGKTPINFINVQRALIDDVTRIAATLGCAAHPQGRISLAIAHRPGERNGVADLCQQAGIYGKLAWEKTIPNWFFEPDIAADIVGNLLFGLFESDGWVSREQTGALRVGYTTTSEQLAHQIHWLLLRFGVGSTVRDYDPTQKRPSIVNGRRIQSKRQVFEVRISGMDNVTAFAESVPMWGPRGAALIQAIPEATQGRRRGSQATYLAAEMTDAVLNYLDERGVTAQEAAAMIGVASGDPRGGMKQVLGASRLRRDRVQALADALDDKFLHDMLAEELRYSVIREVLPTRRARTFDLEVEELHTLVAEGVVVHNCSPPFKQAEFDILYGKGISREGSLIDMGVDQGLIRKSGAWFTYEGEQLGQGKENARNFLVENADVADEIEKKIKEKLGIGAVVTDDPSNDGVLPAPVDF

Genome polyprotein = Genome polyprotein (dengue virus type 2, UniProt P29990); experiment: flavivirus cap methylation enzyme inhibition – biochemical, confirmation dose response, primary screen (AID 588689); assay type: functional
[10] = test system: Streptococcus sp. 'group A'; experiment: Streptococcus pyogenes SK(-)GAS viability under kanamycin – luminescence, BacTiterGlo, confirmation, counter-screen for streptokinase expression inhibitor project, dose response (AID 1900); assay type: functional, organism-based
Streptokinase A = biological target: T5, Streptokinase A (Streptococcus pyogenes serotype M1, UniProt P10520); experiment: viability-normalized secreted streptokinase activity reduction – plasminogen activation absorbance, OD405, dose response (AID 1914); assay type: functional, Streptococcus pyogenes M1 GAS;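 also: secreted streptokinase activity via plasminogen activation per viability signal from cell pellet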
T5 sequence (P10520 whole entry): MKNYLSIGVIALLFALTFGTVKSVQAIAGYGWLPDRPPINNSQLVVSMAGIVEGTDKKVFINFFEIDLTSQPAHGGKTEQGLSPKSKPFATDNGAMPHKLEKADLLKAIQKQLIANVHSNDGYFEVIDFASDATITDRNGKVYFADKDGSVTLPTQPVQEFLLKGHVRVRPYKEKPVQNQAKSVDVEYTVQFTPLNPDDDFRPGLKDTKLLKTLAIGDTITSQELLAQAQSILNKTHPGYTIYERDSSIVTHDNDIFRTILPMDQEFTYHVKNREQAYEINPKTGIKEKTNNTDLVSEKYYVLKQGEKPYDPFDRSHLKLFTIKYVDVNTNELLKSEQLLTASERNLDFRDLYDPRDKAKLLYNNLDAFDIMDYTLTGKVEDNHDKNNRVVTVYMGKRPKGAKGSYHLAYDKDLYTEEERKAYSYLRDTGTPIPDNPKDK

Streptococcus = experiment: GAS UMAA2166 growth inhibition – luminescence, BacTiterGlo, counter-screen for streptokinase expression inhibitor project, dose response (AID 1915); assay type: functional, organism-based;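 also: potency for reduction of bacterial viability or growth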

Sequence of Large T antigen (P03070 whole entry): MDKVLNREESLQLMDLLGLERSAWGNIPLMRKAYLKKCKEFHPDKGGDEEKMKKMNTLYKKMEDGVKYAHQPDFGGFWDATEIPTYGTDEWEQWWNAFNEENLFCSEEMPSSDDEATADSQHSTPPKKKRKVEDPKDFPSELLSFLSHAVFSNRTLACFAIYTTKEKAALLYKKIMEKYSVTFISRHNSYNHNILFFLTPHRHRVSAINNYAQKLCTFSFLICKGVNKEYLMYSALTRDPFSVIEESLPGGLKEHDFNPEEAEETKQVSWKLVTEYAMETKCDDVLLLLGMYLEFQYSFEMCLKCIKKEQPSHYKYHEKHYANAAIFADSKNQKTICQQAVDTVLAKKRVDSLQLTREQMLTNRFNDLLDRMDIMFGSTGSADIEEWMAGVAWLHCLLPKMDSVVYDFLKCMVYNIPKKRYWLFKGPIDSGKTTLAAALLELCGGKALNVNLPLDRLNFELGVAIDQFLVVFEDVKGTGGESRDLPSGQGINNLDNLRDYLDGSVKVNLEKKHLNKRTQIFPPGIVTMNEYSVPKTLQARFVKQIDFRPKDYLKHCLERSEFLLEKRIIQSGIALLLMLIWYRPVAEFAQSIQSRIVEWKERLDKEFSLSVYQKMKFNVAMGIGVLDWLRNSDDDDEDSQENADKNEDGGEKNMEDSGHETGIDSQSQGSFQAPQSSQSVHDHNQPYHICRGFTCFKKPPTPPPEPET
Sequence of Genome polyprotein (P29990 2492-3391 limits assumed): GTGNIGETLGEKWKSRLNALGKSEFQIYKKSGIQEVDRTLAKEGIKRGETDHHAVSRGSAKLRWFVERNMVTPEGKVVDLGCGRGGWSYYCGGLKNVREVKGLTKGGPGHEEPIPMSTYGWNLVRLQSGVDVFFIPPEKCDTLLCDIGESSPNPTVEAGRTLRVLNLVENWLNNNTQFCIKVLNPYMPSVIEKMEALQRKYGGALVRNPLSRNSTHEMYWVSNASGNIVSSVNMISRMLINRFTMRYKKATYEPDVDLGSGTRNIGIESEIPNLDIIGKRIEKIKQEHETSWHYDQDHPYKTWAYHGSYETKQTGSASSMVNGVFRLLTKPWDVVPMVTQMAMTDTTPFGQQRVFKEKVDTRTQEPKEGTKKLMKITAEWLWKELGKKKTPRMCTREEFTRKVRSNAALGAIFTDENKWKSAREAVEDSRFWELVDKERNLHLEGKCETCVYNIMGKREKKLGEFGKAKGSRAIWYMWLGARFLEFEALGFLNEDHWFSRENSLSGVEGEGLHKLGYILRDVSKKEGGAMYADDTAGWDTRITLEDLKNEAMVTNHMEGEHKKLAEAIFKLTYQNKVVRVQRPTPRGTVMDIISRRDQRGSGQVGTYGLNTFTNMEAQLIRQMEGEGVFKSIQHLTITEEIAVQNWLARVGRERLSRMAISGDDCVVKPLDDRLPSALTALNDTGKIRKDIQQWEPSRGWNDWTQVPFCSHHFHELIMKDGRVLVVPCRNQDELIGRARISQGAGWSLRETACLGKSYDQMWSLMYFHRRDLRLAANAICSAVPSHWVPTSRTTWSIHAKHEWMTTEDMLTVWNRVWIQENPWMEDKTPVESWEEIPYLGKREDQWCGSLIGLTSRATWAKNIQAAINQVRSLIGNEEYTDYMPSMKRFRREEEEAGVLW
Sequence of Induced myeloid leukemia cell differentiation protein Mcl-1 (Q07820 whole entry): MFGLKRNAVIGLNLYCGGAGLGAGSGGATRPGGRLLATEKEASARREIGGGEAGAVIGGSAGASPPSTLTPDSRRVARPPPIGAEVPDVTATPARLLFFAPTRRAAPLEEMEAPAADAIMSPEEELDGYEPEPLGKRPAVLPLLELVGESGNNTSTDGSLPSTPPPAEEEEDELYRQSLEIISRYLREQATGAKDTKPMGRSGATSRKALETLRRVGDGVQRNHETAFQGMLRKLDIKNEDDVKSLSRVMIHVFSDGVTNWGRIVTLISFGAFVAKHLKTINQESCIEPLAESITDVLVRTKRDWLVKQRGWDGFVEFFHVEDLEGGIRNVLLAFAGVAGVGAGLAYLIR

Cc1cnc(C(=O)N(CCCn2ccnc2)C2C(=O)Nc3ccccc3N=C2c2ccccc2)cn1 (stereo not drawn)
IC50 (Protein skinhead-1): > 100 µM (inactive)

Fc1ccc(-c2nc(-c3cccs3)no2)cc1
IC50 (Protein skinhead-1): > 100 µM (inactive)

CCOc1cc(/C=C/c2cc(C(F)(F)F)nc(O)n2)ccc1O
IC50 (Large T antigen): 13 µM (active)

O=C(CCOc1ccccc1)N1CCN(c2ccc(O)cc2)CC1
IC50 (Large T antigen): 4.19 µM (active) | AC50 [1]: 11.3 µM (active)

CCN1CCN(c2ncnc3c2c(-c2ccccc2)cn3-c2ccc(F)cc2)CC1
IC50 (Protein skinhead-1): 12.6 µM (active)

CC(C)(C)c1ccc(-c2nc3nc(O)cc(NC(=O)c4ccco4)n3n2)cc1
CC50 [2]: > 40 µM (active)

Cc1ccc2nc3c(cc(C(=O)NCc4ccco4)c(=N)n3Cc3ccco3)c(=O)n2c1
CC50 [2]: 23.8 µM (active)

CCN(CC)c1ccc(NC(=O)CCNC(=O)c2ccco2)cc1
IC50 (Large T antigen): 6.69 µM (active) | IC50 [3]: 9.57 µM (not active)

COc1cc(CCC(=O)OCC(=O)Nc2ccc(F)cc2F)cc(OC)c1OC
IC50 (Protein skinhead-1): > 100 µM (inactive)

COc1ccccc1/C=C/C(=O)N1CCC(c2ccccc2)C1 (stereo not drawn)
EC50 [4]: 9.44 µM (active) | EC50 [5]: 27.8 µM (active) | EC50 (H4): 23.1 µM (active)

Cc1cc(N2CCOCC2)nc2cc(O)ccc12
EC50 [4]: 16.2 µM (active) | EC50 [5]: 6.94 µM (active) | EC50 (H4): > 120 µM (not active)

C=C[S+]([O-])c1sc(Cl)c(N2CCOCC2)c1[N+](=O)[O-] (stereo not drawn)
IC50 (Large T antigen): 9.77 µM (active) | EC50 [6]: 2.99 µM (active) | EC50 [7]: 3.08 µM (active) | EC50 [8]: 3.36 µM (inconclusive) | AC50 [9]: 22.2 µM (active) | EC50 (Protein RecA): 18.8 µM (active)

O=c1c(-c2cnn(-c3ccccc3)c2)coc2cc(O)ccc12
CC50 [2]: > 40 µM (active)

OC(CN1CCN(c2ccccn2)CC1)Cn1c2ccccc2c2ccccc21 (stereo not drawn)
CC50 [2]: > 40 µM (active)

Cc1cc(C)n2nc(/C(C#N)=C/c3ccccn3)c(C#N)c2n1
CC50 [2]: > 40 µM (active)

CCOc1ccc(OCCC(=O)OCC(=O)N2CCN(S(=O)(=O)c3ccc(C)cc3)CC2)cc1
IC50 (Large T antigen): 11.1 µM (active)

c1csc(-c2cn3ccc4ccccc4c3n2)c1
EC50 [5]: 26 µM (active) | EC50 (H4): 0.106 µM (active) | IC50 (Protein skinhead-1): 33.6 µM (active)

O=C(CN1C(=O)NC2(CCCC2)C1=O)Nc1cc(S(=O)(=O)N2CCOCC2)ccc1OCC(F)(F)F
IC50 (Protein skinhead-1): > 100 µM (inactive)

COc1cc(/C=N/N=C2/C(=O)Nc3ccccc32)ccc1O
IC50 (Large T antigen): 8.73 µM (active)

Cc1ccccc1-c1nc(C[S+]([O-])CC(=O)NCc2ccc3c(c2)OCO3)c(C)o1 (stereo not drawn)
IC50 (Protein skinhead-1): > 100 µM (inactive)

O=C(O)/C=C/C(=O)c1ccc2c(c1)NC(=O)CO2
IC50 (Genome polyprotein): > 100 µM (active)

O=C(c1ccccc1)c1ccc(OCCOCCN2CCN(Cc3ccccc3)CC2)cc1
CC50 [2]: > 40 µM (active)

Nc1nc2c(C(=O)N3CCOCC3)nnn2c2ccccc12
EC50 [4]: 0.138 µM (active) | EC50 [5]: 0.203 µM (active) | EC50 (H4): 26.9 µM (active)

Cc1nn(-c2ccccc2)c(Cl)c1/C=C1\SC(=S)N(CCCCCC(=O)O)C1=O
EC50 [10]: 5.26 µM (active) | EC50 (Streptokinase A): 40.7 µM (inconclusive) | EC50 (Streptococcus): 11.2 µM (active) | AC50 [9]: 4.93 µM (active) | EC50 (Protein RecA): 14.2 µM (active) | IC50 (Genome polyprotein): 41.4 µM (active)

COc1ccc(CN2CCN(Cc3ccco3)CC2)cc1
IC50 (Protein skinhead-1): > 100 µM (inactive)

COc1ccc(O)c(C(=O)c2cnn(-c3ccccn3)c2)c1
EC50 [4]: 15.4 µM (active) | EC50 [5]: 43.5 µM (active) | EC50 (H4): 9.17 µM (active)
